The record followed here is patent US11179348B2, “Combination comprising pterostilbene for the treatment of cancer” (FUNDACIÓN UNIVERSIDAD CATÓLICA DE VALENCIA SAN VICENTE …, priority 2015, dated 2021).

The test system of test [1] is HepG2 cells isolated from tumor-bearing mice. The experiment in a line: Chemosensitization of cultured HepG2 cells isolated from xenografts. Type of test: cell-based, human. The note with it: 72 h-cultured, PL 0.2 μM, Chemo 0.15 μM DXR, Pter = in vivo pretreatment. How it is done:
(§1) FIGS. 18-25. Effect of piperlongumine and I-BET762, as GSH depleting and chemosensitizing agents, in in vitro growing human melanoma, pancreatic, breast, lung, liver, prostate, ovarian, and colorectal cancer cells. Cancer cells, isolated from Pter-treated tumor-bearing mice, were cultured as indicated under Methods. Chemotherapy (0.25 μM PAC.PBP in A2058 melanoma and MDA-MB-231 breast carcinoma cells; 0.125 μM PAC.PBP and 25 μM GTB in AsPC-1 pancreatic cancer cells; 1 μM VRB and 15 μM cisPt in A459 lung carcinoma cells; 0.15 μM DXR in HepG2 hepatocellular carcinoma cells; 15 nM DCT in PC-3 prostate carcinoma cells; 0.15 μM PAC.PBP and 25 μM CarboPt in SK-OV-3 ovarian carcinoma cells; 3 μM 5-FU, 1 μM FA and 0.6 μM IRI in HT-29 colorectal carcinoma cells) was added to the cultured flasks 24 h after seeding. […]
(§2) Human A2058, MeWo and MelJuso melanoma cells, and mouse AtT-20 pituitary corticotroph tumor cells were from the American Type Culture Collection (ATCC). […] Cell numbers were determined using a Coulter Counter (Coulter Electronic Inc., Miami, Fla.). […] Cellular viability was assessed as previously reported (Mena, S. et al. Clin Cancer Res 13, 2658-2666 (2007)), by measuring trypan blue exclusion and leakage of lactate dehydrogenase activity. […]
(In general: In xenograft studies the graft and the host belong to different species.)

Test [2] relates to A549 cells isolated from tumor-bearing mice. The test can be described thus: Chemosensitization of cultured A549 cells isolated from xenografts. Type of test: cell-based, human. Particulars: 72 h-cultured, PL 0.5 μM, Chemo 1 μM VRB and 15 μM cisPt, Pter = in vivo pretreatment. How it is done:
as §1, §2

The test system of the next test is B16-F1 cells. The test can be described thus: Effect of Pter on B16-F1 cell growth or viability in vitro. The class given is cell-based, murine. The note with it: 15 μM Pter×60 min every 24 h. Here is the method: FIG. 14. In vivo effect of Pter on tumor growth (A) and on corticosterone (B) and ACTH (C) levels in plasma of murine B16-F1 melanoma-bearing mice. Pter (30 mg/kg) was administered i.v. every 24 h for a period of 15 days, starting 3 days after tumor inoculation.
Human A2058, MeWo and MelJuso melanoma cells, and mouse AtT-20 pituitary corticotroph tumor cells were from the American Type Culture Collection (ATCC). Human HEMa-LP epidermal melanocytes were from Life Technologies (Grand Island, N.Y.). Human MDA-MB-231 (triple negative: ER−, PR−, HER2−) and MCF-7 (ER+, PR+, HER2−) breast adenocarcinoma, A549 lung adenocarcinoma (NSCLC), HepG2 hepatocellular carcinoma, LNCaP (AR+) and PC-3 (AR−) prostate adenocarcinoma, SK-OV-3 epithelial ovarian carcinoma, and HT-29 and Caco-2 colorectal carcinoma cells were from the American Type Culture Collection. Cells were grown in Dulbecco's modified Eagle's medium (DMEM) (Invitrogen, San Diego, Calif.), pH 7.4, supplemented with 10% heat-inactivated FCS (Biochrom KG, Berlin, Germany), 100 units/ml penicillin and 100 μg/ml streptomycin. […] Cell numbers were determined using a Coulter Counter (Coulter Electronic Inc., Miami, Fla.). […] Cellular viability was assessed as previously reported (Mena, S. et al. Clin Cancer Res 13, 2658-2666 (2007)), by measuring trypan blue exclusion and leakage of lactate dehydrogenase activity.

`COc1cc(/C=C/c2ccc(O)cc2)cc(OC)c1` [Pter, trans-3,5-dimethoxy-4′-hydroxystilbene]: the values for the Viable cells in test [1] and in test [2] were 1580 ± 318 ×10^6 and 1317 ± 255 ×10^6, respectively. Moreover, the “cell growth or viability in vitro” value in the test on B16-F1 cells was “did not affect”.
